Results from ChEMBL document CHEMBL6096683, “Novel Orthosteric/Allosteric Ligands of Cannabinoid Receptors: An Unexpected Pharmacological Profile” (J Med Chem, 2025).
The source made the active and inactive calls. The rule behind the calls is not given here.

Assays:
[1] = molecular target: T1, Cannabinoid receptor 1 (Homo sapiens, UniProt P21554); test: Displacement of [3H]CP55940 from human CB1 receptor expressed in CHO cell membrane at 0.001 to 10 uM incubated for 2 hrs relative to control; type: cell membranes; details: dose 0.001-10 µM
[2] = molecular target: T2, Cannabinoid receptor 2 (Homo sapiens, UniProt P34972); test: Displacement of [3H]CP55940 from human CB2 receptor expressed in CHO cell membrane at 0.001 to 10 uM incubated for 2 hrs relative to control; type: cell membranes; details: dose 0.001-10 µM
[3] = molecular target: T2, Cannabinoid receptor 2; test: Displacement of [3H]CP55940 from human CB2 receptor; details: filed as agonist
[4] = molecular target: T1, Cannabinoid receptor 1; test: Displacement of [3H]CP55940 from human CB1 receptor; details: filed as agonist
[5] = tested on: HepG2; test: Anti-steatosis activity against oleate/palmitate-induced human HepG2 cells assessed as induction of lipolysis at 25 uM incubated for 24 hrs; type: functional, cell-based
[6] = molecular target: T2, Cannabinoid receptor 2; test: Agonist activity at human CB2 receptor expressed in CHO cells assessed as inhibition of forskolin-induced cAMP production at 1.8 nM incubated for 90 mins by HitHunter assay relative to control; type: functional, cell-based; parameters: scale not given: the % may be the effect or the level left; details: filed as agonist
[7] = molecular target: T2, Cannabinoid receptor 2; test: Displacement of [3H]CP55940 from human CB2 receptor expressed in CHO cell membrane incubated for 2 hrs; type: cell membranes
[8] = molecular target: T1, Cannabinoid receptor 1; test: Displacement of [3H]CP55940 from human CB1 receptor expressed in CHO cell membrane incubated for 2 hrs; type: cell membranes
[9] = tested on: BEND3; test: Disruption of monolayer integrity in mouse BEND3 cells assessed as change in TEER modulation at 180 mins; type: functional, cell-based
[10] = tested on: BEND3; test: Disruption of monolayer integrity in mouse BEND3 cells assessed as change in TEER modulation at 135 mins; type: functional, cell-based
[11] = molecular target: T1, Cannabinoid receptor 1; test: Agonist activity at human CB1 receptor expressed in CHO cells assessed as inhibition of forskolin-induced cAMP production at 100 nM incubated for 90 mins in presence of CP55940 ligand by HitHunter assay relative to control; type: functional, cell-based
[12] = molecular target: T1, Cannabinoid receptor 1; test: Agonist activity at human CB1 receptor expressed in CHO cells assessed as inhibition of forskolin-induced cAMP production incubated for 90 mins in presence of CP55940 ligand by HitHunter assay; type: functional, cell-based
[13] = molecular target: T2, Cannabinoid receptor 2; test: Agonist activity at human CB2 receptor expressed in CHO cells assessed as inhibition of forskolin-induced cAMP production at 10 uM incubated for 90 mins by HitHunter assay; type: functional, cell-based; details: filed as agonist
[14] = molecular target: T1, Cannabinoid receptor 1; test: Agonist activity at human CB1 receptor expressed in CHO cells assessed as inhibition of forskolin-induced cAMP production at 100 nM incubated for 90 mins in presence of FM6b ligand by HitHunter assay relative to control; type: functional, cell-based; details: filed as agonist
[15] = molecular target: T1, Cannabinoid receptor 1; test: Agonist activity at human CB1 receptor expressed in CHO cells assessed as inhibition of forskolin-induced cAMP production incubated for 90 mins in presence of FM6b ligand by HitHunter assay; type: functional, cell-based
[16] = molecular target: T1, Cannabinoid receptor 1; test: Agonist activity at human CB1 receptor expressed in CHO cells assessed as inhibition of forskolin-induced cAMP production incubated for 90 mins in presence of GAT211 ligand by HitHunter assay; type: functional, cell-based
[17] = molecular target: T1, Cannabinoid receptor 1; test: Agonist activity at human CB1 receptor expressed in CHO cells assessed as inhibition of forskolin-induced cAMP production at 100 nM incubated for 90 mins in presence of GAT211 ligand by HitHunter assay relative to control; type: functional, cell-based
[18] = tested on: HepG2; test: Induction of lipid accumulation in human HepG2 cells at 1 uM incubated for 24 hrs by Oil Red O staining based analysis; type: functional, cell-based
[19] = molecular target: T2, Cannabinoid receptor 2; test: Agonist activity at human CB2 receptor expressed in CHO cells assessed as inhibition of forskolin-induced cAMP production at 0.001 to 10 uM incubated for 90 mins by HitHunter assay; type: functional, cell-based; details: dose 0.001-10 µM
[20] = molecular target: T2, Cannabinoid receptor 2; test: Positive allosteric modulation at human CB2 receptor expressed in CHO cells assessed as inhibition of forskolin-induced cAMP production incubated for 90 mins in presence of FM6b by HitHunter assay relative to control; type: functional, cell-based; details: filed as positive allosteric modulator
[21] = molecular target: T2, Cannabinoid receptor 2; test: Positive allosteric modulation at human CB2 receptor expressed in CHO cells assessed as inhibition of forskolin-induced cAMP production incubated for 90 mins in presence of FM6b by HitHunter assay; type: functional, cell-based
[22] = molecular target: T1, Cannabinoid receptor 1; test: Displacement of [3H]CP55940 from human CB1 receptor expressed in CHO cells at 0.001 to 10 uM; type: cell-based; details: filed as positive allosteric modulator, dose 0.001-10 µM
[23] = molecular target: T2, Cannabinoid receptor 2; test: Displacement of [3H]CP55940 from human CB2 receptor expressed in CHO cells upto 1 uM; type: cell-based
[24] = tested on: HepG2; test: Induction of lipid accumulation in human HepG2 cells assessed as increase in lipolysis at 0.1 to 25 uM incubated for 24 hrs by Oil Red O staining based analysis; type: functional, cell-based; details: dose 0.1-25 µM
[25] = molecular target: T1, Cannabinoid receptor 1; test: Positive allosteric modulation at human CB1 receptor expressed in CHO cells assessed as inhibition of forskolin-induced cAMP production incubated for 90 mins in presence of FM6b by HitHunter assay relative to control; type: functional, cell-based; details: filed as positive allosteric modulator
[26] = molecular target: T2, Cannabinoid receptor 2; test: Positive allosteric modulation at human CB2 receptor expressed in CHO cells assessed as inhibition of forskolin-induced cAMP production incubated for 90 mins in presence of CP55940 ligand by HitHunter assay relative to control; type: functional, cell-based; details: filed as positive allosteric modulator
[27] = molecular target: T2, Cannabinoid receptor 2; test: Displacement of [3H]CP55940 from human CB2 receptor expressed in CHO cells at 10 uM; type: cell-based; details: filed as positive allosteric modulator
[28] = molecular target: T2, Cannabinoid receptor 2; test: Positive allosteric modulation at human CB2 receptor expressed in CHO cells assessed as inhibition of forskolin-induced cAMP production incubated for 90 mins in presence of CP55940 ligand by HitHunter assay; type: functional, cell-based
[29] = molecular target: T1, Cannabinoid receptor 1; test: Positive allosteric modulation at human CB1 receptor expressed in CHO cells assessed as inhibition of forskolin-induced cAMP production incubated for 90 mins by HitHunter assay; type: functional, cell-based; details: filed as positive allosteric modulator
[30] = tested on: HepG2; test: Anti-steatosis activity against oleate/palmitate-induced human HepG2 cells assessed as reduction of lipid accumulation incubated for 24 hrs; type: functional, cell-based; details: dose 0.1-25 µM
[31] = tested on: HepG2; test: Cytotoxicity against human HepG2 cells at 0.1 to 100 uM incubated for 24 hrs by MTT assay; type: functional, cell-based; details: dose 0.1-100 µM
[32] = tested on: HepG2; test: Anti-steatosis activity against oleate/palmitate-induced human HepG2 cells assessed as induction of lipolysis at 0.1 to 25 uM incubated for 24 hrs; type: functional, cell-based; details: dose 0.1-25 µM
[33] = tested on: HepG2; test: Induction of lipid accumulation in human HepG2 cells at 0.1 to 25 uM incubated for 24 hrs by Oil Red O staining based analysis; type: functional, cell-based; details: dose 0.1-25 µM
[34] = tested on: BEND3; test: Disruption of monolayer integrity in mouse BEND3 cells assessed as change in TEER modulation after 3 hrs; type: functional, cell-based
[35] = molecular target: T1, Cannabinoid receptor 1; test: Agonist activity at human CB1 receptor expressed in CHO cells assessed as inhibition of forskolin-induced cAMP production at 1 nM incubated for 90 mins in presence of CP55940 ligand by HitHunter assay relative to control; type: functional, cell-based; details: filed as agonist
[36] = Cytotoxicity against mouse BEND3 cells assessed as cell viability at 30 uM incubated for 24 hrs by WST-1 assay; type: functional; details: read-out: Activity
[37] = molecular target: T2, Cannabinoid receptor 2; test: Agonist activity at human CB2 receptor expressed in CHO cells assessed as inhibition of forskolin-induced cAMP production at 100 nM incubated for 90 mins in presence of FM6b ligand by HitHunter assay relative to control; type: functional, cell-based; details: filed as agonist
[38] = molecular target: T2, Cannabinoid receptor 2; test: Agonist activity at human CB2 receptor expressed in CHO cells assessed as inhibition of forskolin-induced cAMP production incubated for 90 mins in presence of CP55940 ligand by HitHunter assay; type: functional, cell-based
[39] = molecular target: T2, Cannabinoid receptor 2; test: Agonist activity at human CB2 receptor expressed in CHO cells assessed as inhibition of forskolin-induced cAMP production at 100 nM incubated for 90 mins in presence of CP55940 ligand by HitHunter assay relative to control; type: functional, cell-based; details: filed as agonist
[40] = molecular target: T2, Cannabinoid receptor 2; test: Agonist activity at human CB2 receptor expressed in CHO cells assessed as inhibition of forskolin-induced cAMP production incubated for 90 mins in presence of FM6b ligand by HitHunter assay; type: functional, cell-based

T1 sequence (P21554 whole entry): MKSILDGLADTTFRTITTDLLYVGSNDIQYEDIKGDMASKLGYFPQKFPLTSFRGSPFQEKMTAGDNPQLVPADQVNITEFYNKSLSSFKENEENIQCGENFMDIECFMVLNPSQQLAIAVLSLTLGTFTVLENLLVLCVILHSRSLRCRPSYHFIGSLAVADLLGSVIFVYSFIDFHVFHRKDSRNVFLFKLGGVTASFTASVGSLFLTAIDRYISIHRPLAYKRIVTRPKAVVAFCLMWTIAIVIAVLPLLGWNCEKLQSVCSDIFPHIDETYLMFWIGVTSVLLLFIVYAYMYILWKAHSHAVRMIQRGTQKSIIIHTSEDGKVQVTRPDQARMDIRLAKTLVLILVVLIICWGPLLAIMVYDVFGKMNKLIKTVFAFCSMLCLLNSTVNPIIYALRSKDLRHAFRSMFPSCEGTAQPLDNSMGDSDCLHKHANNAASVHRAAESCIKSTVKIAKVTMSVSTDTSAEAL
T2 sequence (P34972 whole entry): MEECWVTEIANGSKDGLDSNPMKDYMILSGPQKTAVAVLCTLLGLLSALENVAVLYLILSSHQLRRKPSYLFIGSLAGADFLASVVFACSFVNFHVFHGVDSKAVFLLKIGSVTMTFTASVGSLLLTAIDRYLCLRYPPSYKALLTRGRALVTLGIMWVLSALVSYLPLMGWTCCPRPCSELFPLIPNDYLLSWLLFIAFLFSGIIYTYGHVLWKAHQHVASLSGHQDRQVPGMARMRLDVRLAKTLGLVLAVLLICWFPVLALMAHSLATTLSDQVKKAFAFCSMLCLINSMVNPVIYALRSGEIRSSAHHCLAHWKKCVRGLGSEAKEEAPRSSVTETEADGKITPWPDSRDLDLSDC

| SMILES | Emax [1] [%] | IC50 ([7]; read-out: pIC50 (converted)) [nM] | IC50 [8] [nM] | Emax ([1]; filed as agonist) [%] | Emax ([2]; filed as agonist) [%] | Emax ([11]; filed as agonist) [%] | EC50 [12] [nM] | Activity [13] | Emax [14] [%] | EC50 [15] [nM] | EC50 [16] [nM] | Emax [17] [%] | also measured |
| --- | --- | --- | --- | --- | --- | --- | --- | --- | --- | --- | --- | --- | --- |
| Cc1c(Br)cc(C(=O)NC2CCCCCC2)c(=O)n1Cc1ccc(F)cc1 | 29 | 6.31 | 0.794 | – | – | – | – | – | – | – | – | – | Emax [2]: 13%; Activity [3]: Active; Activity [4]: Active; Activity [5]: inactive; Activity [6]: 104% |
| O=C1OC2(c3ccc(O)cc3Oc3cc(O)ccc32)c2ccccc21 | – | – | – | – | – | – | – | – | – | – | – | – | Activity [9]: Active; Activity [10]: Active |
| Cc1c(Br)cc(C(=O)NC2CCCCCC2)c(=O)n1CCCCCn1cc(CCC(=O)NCC(c2ccccc2)c2c(-c3ccccc3)[nH]c3ccccc23)nn1 (stereo unspecified) | – | – | 20 | 42 | 80 | 58 | 20 | Active | 120 | 2000 | 63.1 | 1.3 | – |
| Cc1c(C(=O)NN2CCCCC2)nn(-c2ccc(Cl)cc2Cl)c1-c1ccc(Cl)cc1 | – | – | – | – | – | – | – | – | – | – | – | – | Activity [18]: Active |
| O=[N+]([O-])CC(c1ccccc1)c1c(-c2ccccc2)[nH]c2ccccc12 (stereo unspecified) | – | > 10000 | – | – | – | – | – | – | – | – | – | – | Activity [19]: No effect; Emax [20]: 98%; Emax ([1]; filed as positive allosteric modulator): 140%; Emax [2]: 29%; EC50 [21]: 170 nM; Activity [22]: Active; Activity [23]: inactive; Activity [5]: inactive; Activity [24]: inactive; Emax [25]: 85%; Emax [26]: 105%; Activity [27]: Active; EC50 [28]: 0.06 nM; Activity [29]: Active |
| Cc1c(Br)cc(C(=O)NC2CCCCCC2)c(=O)n1CCCCCn1cc(CCCCC(=O)NCC(c2ccccc2)c2c(-c3ccccc3)[nH]c3ccccc23)nn1 (stereo unspecified) | 31 | 1000 | 126 | – | 201 | – | 1580 | Active | 83 | 6.31 | 126 | 35 | Activity [30]: Dose-dependent-effect; Activity [31]: Active; Activity [32]: Active; Activity [33]: Active; Activity [24]: Active; Activity [34]: Active; Emax [35]: 98%; viability at 30 µM [36]: > 75%; Activity [9]: Active; Activity [10]: Active |
| Cc1c(Br)cc(C(=O)NC2CCCCCC2)c(=O)n1CCCn1cc(CCCC(=O)NCC(c2ccccc2)c2c(-c3ccccc3)[nH]c3ccccc23)nn1 (stereo unspecified) | 31 | – | 25.1 | – | 160 | 79 | 25.1 | Active | 120 | 631 | 15.8 | 0.335 | Emax [37]: 73%; EC50 [38]: 7.94 nM; Emax [39]: 104%; IC50 ([7]; read-out: IC50): 100 nM; EC50 [40]: 398 nM |
| Cc1c(Br)cc(C(=O)NC2CCCCCC2)c(=O)n1CCCn1cc(CCCCC(=O)NCC(c2ccccc2)c2c(-c3ccccc3)[nH]c3ccccc23)nn1 (stereo unspecified) | – | – | 0.631 | 60 | 97 | – | 25.1 | Active | 67 | 63.1 | – | 3.32 | Emax [11]: 31% |
| Cc1c(Br)cc(C(=O)NC2CCCCCC2)c(=O)n1CCCCCn1cc(CCCC(=O)NCC(c2ccccc2)c2c(-c3ccccc3)[nH]c3ccccc23)nn1 (stereo unspecified) | 0.12 | > 10000 | 15.8 | – | 44 | 122 | 251 | Active | 130 | 1580 | 5.01 | 24 | – |
| Cc1c(Br)cc(C(=O)NC2CCCCCC2)c(=O)n1CCCn1cc(CCC(=O)NCC(c2ccccc2)c2c(-c3ccccc3)[nH]c3ccccc23)nn1 (stereo unspecified) | – | – | 31.6 | 329 | 130 | 61 | 7.94 | Active | 150 | 2510 | 2 | 26 | Emax [37]: 77%; EC50 [38]: 10 nM; Emax [39]: 123%; IC50 ([7]; read-out: IC50): 6.3 nM; EC50 [40]: 316 nM |
